# Experiments:
# [1] = tested on: Mycobacterium tuberculosis; assay: microbe, parasite or virus in culture; settings: H37Rv, 168 h
# Description: Antimycobacterial activity against Mycobacterium tuberculosis H37Rv assessed as inhibition of bacterial growth measured after 7 days by microplate alamar blue assay
# [2] = in vitro; settings: monkey, Vero cells
# Description: Selectivity index, ratio of IC50 for African green monkey vero cells to MIC for Mycobacterium tuberculosis H37Rv
# [3] = tested on: Mycolicibacterium smegmatis; assay: Antimycobacterial activity against Mycobacterium smegmatis harboring MsmgdeltammpL3/pMVGHI-mmpL3tb G253E mutant assessed as reduction in bacterial growth measured after 16 hrs […]; format: functional
# [4] = tested on: Mycobacterium tuberculosis; assay: microbe, parasite or virus in culture; settings: H37Rv mc2 6206, 16 h
# Description: Antimycobacterial activity against Mycobacterium tuberculosis H37Rv mc2 6206 assessed as reduction in bacterial growth measured after 16 hrs by TLC analysis
# [5] = tested on: Mycobacterium tuberculosis; assay: Antimycobacterial activity against Mycobacterium tuberculosis mc2 6206 assessed as decrease in mycolic acid transfer to cell wall arabinogalactan measured after 16 hrs using [14C]acetate by TLC analysis; format: functional, organism-based; settings: dose 0.0625-1 µg/ml, DDE = dose-dependent effect
# [6] = tested on: Mycobacterium tuberculosis; assay: Antimycobacterial activity against Mycobacterium tuberculosis mc2 6206 assessed as decrease in trehalose dimycolate measured after 16 hrs using [14C]acetate by TLC analysis; format: functional, organism-based; settings: DDE = dose-dependent effect
# [7] = tested on: Mycolicibacterium smegmatis; assay: Antimycobacterial activity against Mycobacterium smegmatis harboring MsmgdeltammpL3/pMVGHI-mmpL3tb mutant assessed as reduction in bacterial growth measured after 16 hrs […]; format: functional
# [8] = Metabolic stability in mouse liver microsomes at 0.5 uM measured after 15 to 120 mins in absence of NADPH by LC-MS/MS analysis; format: ADME, Microsome; settings: time 15-120 min
# [9] = Metabolic stability in mouse liver microsomes at 0.5 uM measured after 15 to 120 mins in presence of NADPH by LC-MS/MS analysis; format: ADME, Microsome; settings: time 15-120 min
# [10] = tested on: Vero; assay: Cytotoxicity against African green monkey vero cells assessed as reduction in cell viability measured after 48 hrs by MTT assay; format: functional, cell-based; settings: Chlorocebus sabaeus
# [11] = tested on: Mycobacterium tuberculosis; format: functional, H37Rv; settings: dose 100 mg/kg; route po; time 3-30 day
# [12] = target: Voltage-gated inwardly rectifying potassium channel KCNH2 (Homo sapiens, UniProt Q12809)
# Sequence of Voltage-gated inwardly rectifying potassium channel KCNH2 (Q12809 whole entry): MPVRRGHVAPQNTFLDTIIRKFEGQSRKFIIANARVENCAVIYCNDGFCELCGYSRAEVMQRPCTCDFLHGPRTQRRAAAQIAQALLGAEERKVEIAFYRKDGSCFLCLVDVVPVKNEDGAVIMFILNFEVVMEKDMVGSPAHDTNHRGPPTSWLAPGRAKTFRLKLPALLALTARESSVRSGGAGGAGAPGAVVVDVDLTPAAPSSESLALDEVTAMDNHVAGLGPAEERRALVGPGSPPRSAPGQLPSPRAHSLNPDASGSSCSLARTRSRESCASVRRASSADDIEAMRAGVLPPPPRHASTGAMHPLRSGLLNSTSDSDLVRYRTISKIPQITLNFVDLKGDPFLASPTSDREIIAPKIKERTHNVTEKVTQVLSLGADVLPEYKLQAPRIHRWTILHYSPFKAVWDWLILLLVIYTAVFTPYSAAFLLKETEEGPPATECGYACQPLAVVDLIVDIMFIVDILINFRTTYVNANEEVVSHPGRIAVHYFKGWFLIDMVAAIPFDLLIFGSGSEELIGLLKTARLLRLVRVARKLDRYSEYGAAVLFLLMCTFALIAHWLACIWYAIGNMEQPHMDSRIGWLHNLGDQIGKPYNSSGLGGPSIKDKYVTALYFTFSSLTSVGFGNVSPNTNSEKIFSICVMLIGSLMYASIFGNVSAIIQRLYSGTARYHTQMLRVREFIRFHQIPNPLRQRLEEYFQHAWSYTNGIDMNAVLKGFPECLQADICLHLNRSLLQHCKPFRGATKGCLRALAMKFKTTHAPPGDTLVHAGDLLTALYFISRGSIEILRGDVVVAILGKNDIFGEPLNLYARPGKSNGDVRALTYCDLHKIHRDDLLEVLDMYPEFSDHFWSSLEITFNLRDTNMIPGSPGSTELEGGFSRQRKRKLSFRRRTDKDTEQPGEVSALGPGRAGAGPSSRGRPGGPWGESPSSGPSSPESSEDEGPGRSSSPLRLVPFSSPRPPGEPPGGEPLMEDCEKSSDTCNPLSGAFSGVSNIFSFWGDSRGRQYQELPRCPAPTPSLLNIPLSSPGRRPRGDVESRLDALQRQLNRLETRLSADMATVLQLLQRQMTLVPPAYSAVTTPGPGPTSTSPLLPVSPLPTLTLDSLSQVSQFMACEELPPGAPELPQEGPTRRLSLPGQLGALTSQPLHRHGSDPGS
# Description: Inhibition of hERG potassium channel in HEK293 cells at 0.3 to 30 uM by whole-cell patch clamp assay
SMILES,MIC90 [1],IC50 [10],further results
O=C(NC1C2CC3CC(C2)CC1C3)c1cc(-c2ccc(F)nc2)c[nH]1 (centres undefined),0.09 µg/mL,–,selectivity ratio [2]: 391
CN(C(=O)c1cc(-c2ccc(Cl)cc2Cl)cn1C)C1C2CC3CC(C2)CC1C3 (centres undefined),> 32 µg/mL,–,–
O=C(NC1C2CC3CC(C2)CC1C3)c1cc(-c2ccc(Cl)cc2Cl)c[nH]1 (centres undefined),0.06 µg/mL,–,MIC=>90 [3]: >4 µg/mL; MIC90 [4]: 0.25 µg/mL; inhibition [5]: Dde; inhibition [6]: Dde; MIC90 [7]: 1 µg/mL
O=C(NC12CC3CC(CC(C3)C1)C2)c1cc(-c2ccncc2F)c[nH]1,0.06 µg/mL,–,–
COc1ncccc1-c1c[nH]c(C(=O)NC2C3CC4CC(C3)CC2C4)c1 (centres undefined),< 0.016 µg/mL,–,selectivity ratio [2]: 737; Stability [8]: Stable; Stability [9]: 0.63%
O=C(NC12CC3CC(CC(C3)C1)C2)c1cc(-c2ccc(Cl)cc2)c[nH]1,0.155 µg/mL,–,–
COc1cc(F)ccc1-c1c[nH]c(C(=O)NC23CC4CC(CC(C4)C2)C3)c1,< 0.016 µg/mL,–,Stability [8]: Stable; Stability [9]: 23.3%
O=C(NC1C2CC3CC(C2)CC1C3)c1cc(-c2cccnc2Cl)c[nH]1 (centres undefined),0.28 µg/mL,> 64 µg/mL,–
O=C(NC1C2CC3CC(C2)CC1C3)c1cc(-c2ccc(F)nc2F)c[nH]1 (centres undefined),< 0.016 µg/mL,–,MIC=>90 [3]: 4 µg/mL; MIC90 [4]: 0.125 µg/mL; Activity [11]: 2 log10CFU; inhibition [5]: Dde; Stability [8]: Stable; Stability [9]: 43.3%; IC50 [12]: > 30 µM; inhibition [6]: Dde; MIC90 [7]: 0.5 µg/mL
O=C(NC12CC3CC(CC(C3)C1)C2)c1cc(-c2ccc(F)cc2F)c[nH]1,< 0.016 µg/mL,–,MIC=>90 [3]: 2 µg/mL; MIC90 [4]: 0.0625 µg/mL; Activity [11]: 1.5 log10CFU; inhibition [5]: Dde; Stability [8]: Stable; Stability [9]: 57.4%; IC50 [12]: > 30 µM; inhibition [6]: Dde; MIC90 [7]: 0.25 µg/mL
COc1cc(F)ccc1-c1c[nH]c(C(=O)NC2C3CC4CC(C3)CC2C4)c1 (centres undefined),< 0.016 µg/mL,22 µg/mL,selectivity ratio [2]: 1380
O=C(NC1CCCCCC1)c1cc(-c2ccc(Cl)cc2Cl)c[nH]1,1.9 µg/mL,–,–
Nc1ncc(F)cc1-c1c[nH]c(C(=O)NC2C3CC4CC(C3)CC2C4)c1 (centres undefined),0.44 µg/mL,33.9 µg/mL,selectivity ratio [2]: 77
Cc1ccc(-c2c[nH]c(C(=O)NC3C4CC5CC(C4)CC3C5)c2)cn1 (centres undefined),1 µg/mL,–,–
O=C(NC1C2CC3CC(C2)CC1C3)c1cc(-c2cccnc2)c[nH]1 (centres undefined),0.04 µg/mL,39.5 µg/mL,selectivity ratio [2]: 988
O=C(NC1C2CC3CC(C2)CC1C3)c1cc(-c2ccc(F)cc2F)c[nH]1 (centres undefined),< 0.016 µg/mL,–,selectivity ratio [2]: 900; Stability [8]: Stable; Stability [9]: 61.4%
O=C(NC1CCCCCCC1)c1cc(-c2ccncc2F)c[nH]1,0.06 µg/mL,–,–
O=C(NC1CCCCCCC1)c1cc(-c2ccc(F)cc2F)c[nH]1,< 0.016 µg/mL,–,MIC=>90 [3]: 2 µg/mL; MIC90 [4]: 0.125 µg/mL; inhibition [5]: Dde; inhibition [6]: Dde; MIC90 [7]: 0.25 µg/mL
COc1ncc(-c2c[nH]c(C(=O)NC3C4CC5CC(C4)CC3C5)c2)cn1 (centres undefined),3.8 µg/mL,–,–
O=C(NC1C2CC3CC(C2)CC1C3)c1cc(-c2ccc(Cl)cc2)c[nH]1 (centres undefined),0.1 µg/mL,12.6 µg/mL,selectivity ratio [2]: 126
COc1ccc(-c2c[nH]c(C(=O)NC3C4CC5CC(C4)CC3C5)c2)cn1 (centres undefined),0.25 µg/mL,–,selectivity ratio [2]: 137

SMILES,MIC90 [1],IC50 [10],further results
COc1ccc(-c2c[nH]c(C(=O)NC3C4CC5CC(C4)CC3C5)c2)c(OC)c1 (centres undefined),0.24 µg/mL,> 64 µg/mL,–
O=C(NC1CCCCCCC1)c1cc(-c2ccc(F)cc2)c[nH]1,0.03 µg/mL,–,–
O=C(NC1C2CC3CC(C2)CC1C3)c1cc(-c2ccc(Cl)nc2Cl)c[nH]1 (centres undefined),0.24 µg/mL,> 64 µg/mL,–
O=C(NC1C2CC3CC(C2)CC1C3)c1cc(-c2ccc(F)cc2)c[nH]1 (centres undefined),< 0.016 µg/mL,12.6 µg/mL,selectivity ratio [2]: 788; Stability [8]: Stable; Stability [9]: 70.4%
O=C(NC1C2CC3CC(C2)CC1C3)c1cc(-c2ccccc2Cl)c[nH]1 (centres undefined),0.24 µg/mL,> 64 µg/mL,–
COc1ncc(F)cc1-c1c[nH]c(C(=O)NC2C3CC4CC(C3)CC2C4)c1 (centres undefined),0.016 µg/mL,> 64 µg/mL,Stability [8]: Stable; Stability [9]: 1.97%
O=C(NC1CCC(F)(F)CC1)c1cc(-c2ccc(Cl)cc2Cl)c[nH]1,6.1 µg/mL,–,–
Cc1ccc(-c2c[nH]c(C(=O)NC3C4CC5CC(C4)CC3C5)c2)c(C)c1 (centres undefined),0.97 µg/mL,–,–
O=C(NC1C2CC3CC(C2)CC1C3)c1cc(-c2ccncc2Cl)c[nH]1 (centres undefined),< 0.016 µg/mL,58.7 µg/mL,selectivity ratio [2]: 3670; Stability [8]: Stable; Stability [9]: 73.4%
O=C(NC1C2CC3CC(C2)CC1C3)c1cc(-c2ccc(C(F)(F)F)cc2C(F)(F)F)c[nH]1 (centres undefined),1.08 µg/mL,–,–
O=C(NC1C2CC3CC(C2)CC1C3)c1cc(-c2ccncc2F)c[nH]1 (centres undefined),0.11 µg/mL,–,selectivity ratio [2]: 415
O=C(Nc1ccccc1)c1cc(-c2ccc(Cl)cc2Cl)c[nH]1,> 32 µg/mL,–,–
CCCNC(=O)c1cc(-c2ccc(Cl)cc2Cl)c[nH]1,12.5 µg/mL,–,–
Cc1nc(F)ccc1-c1c[nH]c(C(=O)NC2C3CC4CC(C3)CC2C4)c1 (centres undefined),0.062 µg/mL,27.7 µg/mL,selectivity ratio [2]: 447; Stability [8]: Stable; Stability [9]: 32.3%
CC1(C)CCC(NC(=O)c2cc(-c3ccc(Cl)cc3Cl)c[nH]2)CC1,0.5 µg/mL,–,–
COc1ccc(-c2c[nH]c(C(=O)NC3C4CC5CC(C4)CC3C5)c2)c(F)c1 (centres undefined),0.47 µg/mL,> 64 µg/mL,–
O=C(NC1CCCCCCC1)c1cc(-c2ccc(F)nc2F)c[nH]1,0.03 µg/mL,–,MIC=>90 [3]: 4 µg/mL; MIC90 [4]: 0.25 µg/mL; inhibition [5]: Dde; Stability [8]: Stable; Stability [9]: 25.9%; inhibition [6]: Dde; MIC90 [7]: 0.5 µg/mL
O=C(NC12CC3CC(CC(C3)C1)C2)c1cc(-c2ccc(F)cc2)c[nH]1,< 0.016 µg/mL,–,–
O=C(c1cc(-c2ccc(Cl)cc2Cl)c[nH]1)N1CCCC1,9.8 µg/mL,–,–
NNC(=O)c1ccncc1 [ISONIAZID],0.04 µg/mL,–,–
O=C(NC1C2CC3CC(C2)CC1C3)c1cc(-c2cccnc2F)c[nH]1 (centres undefined),0.06 µg/mL,> 64 µg/mL,Stability [8]: Stable; Stability [9]: 0%

SMILES,MIC90 [1],IC50 [10],further results
O=C(NC1CCCCCCC1)c1cc(-c2ccc(Cl)cc2)c[nH]1,0.24 µg/mL,–,–
O=C(NC12CC3CC(CC(C3)C1)C2)c1cc(-c2ccc(Cl)cc2Cl)c[nH]1,0.058 µg/mL,–,–
O=C(NC1C2CC3CC(C2)CC1C3)c1cc(-c2ccc(O)cc2F)c[nH]1 (centres undefined),> 32 µg/mL,–,–
O=C(NC1C2CC3CC(C2)CC1C3)c1cc(-c2ccc(Cl)nc2)c[nH]1 (centres undefined),0.24 µg/mL,> 64 µg/mL,–
O=C(NC1C2CC3CC(C2)CC1C3)c1cc(-c2ccccc2F)c[nH]1 (centres undefined),< 0.016 µg/mL,12.6 µg/mL,selectivity ratio [2]: 1320; Stability [8]: Stable; Stability [9]: 0%
O=C(NC1C2CC3CC(C2)CC1C3)c1cc(-c2ccncc2)c[nH]1 (centres undefined),0.45 µg/mL,–,selectivity ratio [2]: 99
O=C(c1cc(-c2ccc(Cl)cc2Cl)c[nH]1)N1CCCCC1,7.7 µg/mL,–,–
O=C(NC12CC3CC(CC(C3)C1)C2)c1cc(-c2ccncc2Cl)c[nH]1,0.03 µg/mL,–,Stability [8]: Stable; Stability [9]: 42.7%
COc1cc(F)ccc1-c1c[nH]c(C(=O)NC2CCCCCCC2)c1,< 0.016 µg/mL,–,Stability [8]: Stable; Stability [9]: 9.03%
O=C(NC1C2CC3CC(C2)CC1C3)c1cc(-c2cncnc2)c[nH]1 (centres undefined),0.96 µg/mL,–,–
CC1(C)CCC(NC(=O)c2cc3c(Cl)cc(Cl)cc3[nH]2)CC1,0.015 µg/mL,10.5 µg/mL,selectivity ratio [2]: 700
O=C(NC1CCCCCCC1)c1cc(-c2ccncc2Cl)c[nH]1,0.05 µg/mL,–,–
Cn1cc(-c2ccc(Cl)cc2Cl)cc1C(=O)NC1C2CC3CC(C2)CC1C3 (centres undefined),3.7 µg/mL,–,–
O=C(c1cc(-c2ccc(Cl)cc2Cl)c[nH]1)N1CCOCC1,14.7 µg/mL,–,–
COc1cnccc1-c1c[nH]c(C(=O)NC2C3CC4CC(C3)CC2C4)c1 (centres undefined),0.24 µg/mL,58.8 µg/mL,selectivity ratio [2]: 245
O=C(NC12CC3CC(CC(C3)C1)C2)c1cc(-c2ccc(F)nc2F)c[nH]1,< 0.016 µg/mL,–,Activity [11]: 1 log10CFU; Stability [8]: Stable; Stability [9]: 47.6%; IC50 [12]: > 30 µM
CN1CCN(C(=O)c2cc(-c3ccc(Cl)cc3Cl)c[nH]2)CC1,27.4 µg/mL,–,–
O=C(NC1CCCCCCC1)c1cc(-c2ccc(Cl)cc2Cl)c[nH]1,0.23 µg/mL,–,–
O=C(NC1CCCCC1)c1cc(-c2ccc(Cl)cc2Cl)c[nH]1,6.5 µg/mL,–,–
O=C(NC1C2CC3CC(C2)CC1C3)c1cc(-c2ccccn2)c[nH]1 (centres undefined),0.12 µg/mL,47.3 µg/mL,selectivity ratio [2]: 394

# — ChEMBL document CHEMBL5126604, “Design, Synthesis, and Biological Evaluation of Pyrrole-2-carboxamide Derivatives as Mycobacterial Membrane Protein Large 3 Inhibitors for Treating Drug-Resistant Tuberculosis” (J Med Chem, 2022)
